Measurements from the OPERA property sets (Mansouri et al. 2018).

Row | Compound | logP
1 | COc1ccc2c(c1)[n+]([O-])nc(N)[n+]2[O-] | 0
2 | CNC(=O)NCCCC(NC(C)=O)C(=O)NCc1ccccc1 (centres undefined) | -0.33
3 | CNC(=O)ON=C(CSC)C(C)(C)C | 2.75
4 | Nc1n[n+]([O-])c2cc(OCC(O)CO)ccc2[n+]1[O-] (centres undefined) | -1.1
5 | CCCN(CCCl)c1c([N+](=O)[O-])cc(C(F)(F)F)cc1[N+](=O)[O-] | 4.63
6 | OC1(Cn2cncn2)CCCC1Cc1ccc(-c2ccccc2)cc1 (centres undefined) | 3.92
7 | C=CCNC(=O)N(CCC)CCCC(NC(C)=O)C(=O)NCc1ccccc1 (centres undefined) | 1.21
8 | COc1ccc(-c2nnc(NC(=O)c3c(OC)cccc3OC)s2)cc1 | 3.56
9 | CC1CC2=NOS3=C2C(=NO3)C1 | 1.5
10 | C=CCOc1ccc2c(c1)[n+]([O-])nc(N)[n+]2[O-] | 0.76
11 | CNC(=O)NCCCCC(NC(C)=O)C(=O)NCc1ccccc1 (centres undefined) | 0.06
12 | CC=CCOCN(C(=O)CCl)c1c(CC)cccc1CC | 3.51
13 | CCCCCCOc1ccccc1NC(=O)OC1CCCCC1CN(C)C (centres undefined) | 5.9
14 | CCC(C)c1ccc(OC(=O)N(C)C)cc1 (centres undefined) | 3.62
15 | C#CCOc1ccc(NC=NOC)cc1OCC#C | 1.6
16 | O=c1[nH]c2ccccc2n1C1CCNCC1 | 1.14
17 | CCc1ccc(OC(=O)N(C)C)cc1 | 2.55
18 | CCCN1CCN(CCC)C1=S | 1.86
19 | CN(C)C(=O)Oc1ccc(Br)cc1 | 2.46
20 | C#CCOc1cc(NC=NOCC=C)cc(Cl)c1OCC#C | 2.7
21 | O=C1NC(=O)C(c2ccccc2)(c2ccccc2)N1S(=O)(=O)c1ccccc1 | 4.04

Results, then the molecule that gave them:

Row | logP | Compound
22 | 2.07 | CC(C(N)=O)c1ccc(-n2sc3ccccc3c2=O)cc1 (centres undefined)
23 | 0.7 | COC(=O)NC(=S)Nc1ccccc1N
24 | 0.84 | COC1N(C2CC(N=[N+]=[N-])C(CO)O2)C(=O)NC(=O)C1(C)Cl (centres undefined)
25 | 2.97 | CCOc1ccc(NC(=O)OC(C)CCl)cc1OCC (centres undefined)
26 | 3.59 | CCOC(=O)CCOc1ccc(-n2sc3ccccc3c2=O)cc1
27 | 3.57 | CCCCNC(=O)COC(=O)Cc1ccc2cc(OC)ccc2c1
28 | 3.85 | COc1cccc(OC)c1C(=O)Nc1nnc(-c2ccc(C)cc2)s1
29 | 3.31 | CCC(C)NC(=O)COC(=O)Cc1ccc2cc(OC)ccc2c1 (centres undefined)
30 | 4.11 | CCOC(=O)C(CC)c1ccc(-n2sc3ccccc3c2=O)cc1 (centres undefined)
31 | 3.67 | C=CCN(CC=C)C(=O)COC(=O)Cc1ccc2cc(OC)ccc2c1
32 | 2.19 | CNC(=O)COC(=O)Cc1ccc2cc(OC)ccc2c1
33 | 0.66 | CC(C)(C)C(=O)OCn1cc(F)c(=O)[nH]c1=O
34 | 2.3 | CCOC(=O)NC1CCc2cc(OC)c(OC)c(OC)c2-c2ccc(OC)c(=O)cc21 (centres undefined)
35 | -1.89 | Nc1ncn(C2CC(O)C(CO)O2)c(=O)n1 (centres undefined)
36 | 2.05 | CCCCCCCCn1c(N)c(N)c(=O)[nH]c1=O
37 | 2.56 | CCOc1ccc(NC(=O)OC(C)COC)cc1OCC (centres undefined)
38 | 3.55 | COc1ccccc1NC(=O)OC1CCCCC1CN(C)C (centres undefined)
39 | 4 | Cc1ccccc1S(=O)(=O)N1C(=O)NC(=O)C1(c1ccccc1)c1ccccc1
